Measurements published in ChEMBL document CHEMBL6103538, “Carbonic anhydrases: Moiety appended derivatives, medicinal and pharmacological implications” (Bioorg Med Chem, 2024).

Legend:
Carbonic anhydrase 1 [1] = biological target: T1, Carbonic anhydrase 1 (Homo sapiens, UniProt P00915); assay: Binding affinity to human CA I assessed as inhibition constant
Carbonic anhydrase 2 [2] = biological target: T2, Carbonic anhydrase 2 (Homo sapiens, UniProt P00918); assay: Binding affinity to human CA II assessed as inhibition constant
Carbonic anhydrase 1 [3] = biological target: T1, Carbonic anhydrase 1; assay: Binding affinity to human Carbonic anhyrase 1 assessed as inhibition constant pre-incubated for 10 mins by stopped-flow instrument based assay
Carbonic anhydrase 2 [4] = biological target: T2, Carbonic anhydrase 2; assay: Binding affinity to human Carbonic anhyrase 2 assessed as inhibition constant pre-incubated for 10 mins by stopped-flow instrument based assay
HT-29 = assay: Cytotoxicity against human HT-29 cells assessed as reduction in cell viability incubated for 24 hrs by MTT assay; format: functional, cell-based; conditions: HT-29, 24 h
PC-3 = assay: Cytotoxicity against human PC-3 cells assessed as reduction in cell viability incubated for 24 hrs by MTT assay; format: functional, cell-based; conditions: PC-3, 24 h
MDA-MB-231 [5] = assay: Anticancer activity against human MDA-MB-231 cells assessed as reduction in cell viability under normoxia condition; format: functional, cell-based
[6] = Inhibition of Hsp70 (unknown origin); set-up: species or system Homo sapiens
MCF7 [7] = assay: Anticancer activity against human MCF7 cells assessed as reduction in cell viability under hypoxia condition; format: functional, cell-based
MCF7 [8] = assay: Anticancer activity against human MCF7 cells assessed as reduction in cell viability under normoxia condition; format: functional, cell-based
MDA-MB-231 [9] = assay: Anticancer activity against human MDA-MB-231 cells assessed as reduction in cell viability under hypoxia condition; format: functional, cell-based
HepG2 [10] = assay: Antiproliferative activity against human HepG2 cells assessed as reduction in cell viability by SRB assay; format: functional, cell-based
MCF7 [11] = assay: Antiproliferative activity against human MCF7 cells assessed as reduction in cell viability by SRB assay; format: functional, cell-based
A549 = assay: Antiproliferative activity against human A549 cells assessed as reduction in cell viability by SRB assay; format: functional, cell-based
[12] = biological target: Carbonic anhydrase 5B, mitochondrial (Homo sapiens, UniProt Q9Y2D0); assay: Binding affinity to human CA VB-catalysed CO2 hydration activity assessed as inhibition constant pre-incubated for 15 mins by stopped-flow instrument method
Chain of Carbonic anhydrase 5B, mitochondrial (Q9Y2D0 whole entry): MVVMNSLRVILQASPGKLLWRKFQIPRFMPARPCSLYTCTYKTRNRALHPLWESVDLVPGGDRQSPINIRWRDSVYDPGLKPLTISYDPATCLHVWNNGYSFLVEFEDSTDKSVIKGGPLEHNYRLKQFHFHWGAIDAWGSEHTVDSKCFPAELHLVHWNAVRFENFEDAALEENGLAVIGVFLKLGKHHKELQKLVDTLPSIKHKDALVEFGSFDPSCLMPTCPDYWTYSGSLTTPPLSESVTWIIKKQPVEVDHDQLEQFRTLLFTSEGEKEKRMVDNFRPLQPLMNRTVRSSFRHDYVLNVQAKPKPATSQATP

Carbonic anhydrase 9 [13] = biological target: T3, Carbonic anhydrase 9 (Homo sapiens, UniProt Q16790); assay: Binding affinity human CA IX assessed as inhibition constant
Carbonic anhydrase 12 [14] = biological target: T4, Carbonic anhydrase 12 (Homo sapiens, UniProt O43570); assay: Binding affinity to human recombinant CA XII assessed as inhibition constant
T4 sequence (O43570 whole entry): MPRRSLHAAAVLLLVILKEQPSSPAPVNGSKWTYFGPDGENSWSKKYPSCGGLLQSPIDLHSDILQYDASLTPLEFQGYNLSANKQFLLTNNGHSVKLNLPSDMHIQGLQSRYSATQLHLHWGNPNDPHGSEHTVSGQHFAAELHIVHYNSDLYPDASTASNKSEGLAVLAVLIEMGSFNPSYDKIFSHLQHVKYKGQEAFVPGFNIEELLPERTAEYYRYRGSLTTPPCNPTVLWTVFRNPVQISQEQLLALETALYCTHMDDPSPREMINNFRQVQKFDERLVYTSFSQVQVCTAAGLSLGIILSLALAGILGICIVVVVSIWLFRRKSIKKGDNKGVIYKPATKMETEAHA

Carbonic anhydrase 9 [15] = biological target: T3, Carbonic anhydrase 9; assay: Binding affinity to human recombinant CA IX assessed as inhibition constant
Homo sapiens [16] = organism: Homo sapiens; assay: Selectivity ratio of IC50 for human CA I to IC50 for human CA II
Homo sapiens [17] = organism: Homo sapiens; assay: Selectivity ratio of IC50 for human CA IX to IC50 for human CA II
Carbonic anhydrase 4 = Carbonic anhydrase 4 (Homo sapiens, UniProt P22748); assay: Binding affinity to human CA4 assessed as inhibition constant
Chain of Carbonic anhydrase 4 (P22748 whole entry): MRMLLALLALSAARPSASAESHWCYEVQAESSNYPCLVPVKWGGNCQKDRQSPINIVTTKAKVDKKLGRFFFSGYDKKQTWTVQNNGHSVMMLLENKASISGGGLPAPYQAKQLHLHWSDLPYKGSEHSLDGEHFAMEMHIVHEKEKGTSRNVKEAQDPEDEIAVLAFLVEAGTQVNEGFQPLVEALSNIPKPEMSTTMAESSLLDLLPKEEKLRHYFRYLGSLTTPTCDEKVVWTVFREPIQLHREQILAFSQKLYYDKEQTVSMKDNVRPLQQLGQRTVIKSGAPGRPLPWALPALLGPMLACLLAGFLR

Carbonic anhydrase 1 [18] = biological target: T1, Carbonic anhydrase 1; assay: Inhibition of human Carbonic anhydrase 1
Carbonic anhydrase 2 [19] = biological target: T2, Carbonic anhydrase 2; assay: Binding affinity to human CA II assessed as inhibition constant by spectrophotometric analysis
Carbonic anhydrase 9 [20] = biological target: T3, Carbonic anhydrase 9; assay: Inhibition of human Carbonic anhydrase IX
Carbonic anhydrase 2 [21] = biological target: T2, Carbonic anhydrase 2; assay: Inhibition of human Carbonic anhydrase 2
Carbonic anhydrase 12 [22] = biological target: T4, Carbonic anhydrase 12; assay: Binding affinity to human CA XII assessed as inhibition constant
MCF7 [23] = assay: Anticancer activity against human MCF7 cells assessed as reduction in cell viability measured after 72 hrs by MTT assay; format: functional, cell-based; conditions: MCF7, 72 h
MDA-MB-231 [24] = assay: Anticancer activity against human MDA-MB-231 cells assessed as reduction in cell viability measured after 72 hrs by MTT assay; format: functional, cell-based; conditions: MDA-MB-231, 72 h
HepG2 [25] = assay: Anticancer activity against human HepG2 cells assessed as reduction in cell viability measured after 72 hrs by MTT assay; format: functional, cell-based; conditions: HepG2, 72 h
Carbonic anhydrase 1 [26] = biological target: T1, Carbonic anhydrase 1; assay: Binding affinity to human CA I assessed as inhibition constant by spectrophotometric analysis
MCF7 [27] = assay: Cytotoxicity against human MCF7 cells assessed as reduction in cell viability incubated for 24 hrs by MTT assay; format: functional, cell-based; conditions: MCF7, 24 h
MCF7 [28] = assay: cells; format: functional, cell-based; conditions: Homo sapiens
HCT-116 = assay: cells; format: functional, cell-based; conditions: Homo sapiens
Description: Cytotoxicity against human HCT-116 cells

Carbonic anhydrase 2 [29] = biological target: T2, Carbonic anhydrase 2; assay: Binding affinity to human CA II assessed as inhibition constant pre-incubated for 15 mins by stopped-flow CO2-hydrase assay method

T1 sequence (P00915 whole entry): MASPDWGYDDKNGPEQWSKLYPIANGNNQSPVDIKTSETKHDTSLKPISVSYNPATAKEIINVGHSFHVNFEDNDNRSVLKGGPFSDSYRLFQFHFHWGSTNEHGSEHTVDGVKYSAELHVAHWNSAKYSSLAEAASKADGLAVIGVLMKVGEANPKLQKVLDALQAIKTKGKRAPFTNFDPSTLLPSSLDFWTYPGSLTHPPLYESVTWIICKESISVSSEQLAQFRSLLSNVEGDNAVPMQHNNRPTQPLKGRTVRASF

NS(=O)(=O)c1ccc(C(=O)Nc2ncc(C(=O)NCCN3CCOCC3)s2)cc1
Ki (Carbonic anhydrase 1 [1]): 45.9 nM | Ki (Carbonic anhydrase 2 [2]): 6.51 nM

CC(=O)c1ccc(N/N=N/c2ccc(S(=O)(=O)NC(=N)N)cc2)cc1
Ki (Carbonic anhydrase 1 [1]): 6.44 nM

Cc1ccc(C(=O)/C=C/c2cn(Cc3cn(-c4ccc(S(N)(=O)=O)cc4)nn3)c3ccccc23)cc1
Ki (Carbonic anhydrase 1 [3]): 50.4 nM | Ki (Carbonic anhydrase 2 [4]): 36.2 nM

Cc1ccc(C(C)C)c(OCc2cn(CCCCOc3ccc4ccc(=O)oc4c3)nn2)c1
IC50 (HT-29): 12100 nM | IC50 (PC-3): 9400 nM

Cn1c(N)c(NCc2cc(I)ccc2O)c(=O)n(C)c1=O
Ki (Carbonic anhydrase 2 [2]): 16.3 nM

COc1cccc(NC(=O)Nc2cccc(OC)c2)c1
IC50 (MDA-MB-231 [5]): 6300 nM | IC50 [6]: 15300 nM | IC50 (MCF7 [7]): 1100 nM | IC50 (MCF7 [8]): 3700 nM | IC50 (MDA-MB-231 [9]): 12400 nM

NS(=O)(=O)c1ccc(C(=O)Nc2nc(C(=O)OCCCN3CCOCC3)cs2)cc1
Ki (Carbonic anhydrase 1 [1]): 27.3 nM | Ki (Carbonic anhydrase 2 [2]): 6.92 nM

Cc1ccc(-c2c(/C=N/NC(=O)C34CC5CC(CC(C5)C3)C4)n[nH]c2-c2ccccc2)cc1
IC50 (HepG2 [10]): < 5000 nM | IC50 (MCF7 [11]): < 5000 nM | IC50 (A549): < 5000 nM

COc1ccccc1NC(=O)SOS(N)(=O)=O
Ki [12]: 345 nM

Cc1sc2ncnc(Nc3ccc(S(N)(=O)=O)cc3)c2c1C
Ki (Carbonic anhydrase 9 [13]): 16.1 nM

NS(=O)(=O)c1ccc(-n2cc(Cn3cc(/C=C/C(=O)c4ccc(Br)cc4)c4ccccc43)nn2)cc1
Ki (Carbonic anhydrase 1 [3]): 18.8 nM | Ki (Carbonic anhydrase 2 [4]): 468 nM

Nc1nn(C(=O)C23CC4CC(CC(C4)C2)C3)c(N)c1/N=N/c1ccccc1
Ki (Carbonic anhydrase 12 [14]): 140 nM | IC50 (HepG2 [10]): < 5000 nM | Ki (Carbonic anhydrase 9 [15]): 85 nM | IC50 (MCF7 [11]): < 5000 nM

N=C(N)NS(=O)(=O)c1ccc(/N=N/Nc2c(F)c(F)c(F)c(F)c2F)cc1
Ki (Carbonic anhydrase 2 [2]): 8.16 nM

Cc1nn(-c2ccc(S(N)(=O)=O)cc2)c2c1C(c1c(F)cccc1F)C(C#N)=C(N)O2 (stereo unspecified)
Ratio IC50 (Homo sapiens [16]): 14.3 | Ki (Carbonic anhydrase 9 [13]): 19 nM | Ratio IC50 (Homo sapiens [17]): 7.42

Cc1c(/C=N/Nc2nc(-c3ccc(F)cc3)cs2)nnn1-c1cccc(S(N)(=O)=O)c1
Ki (Carbonic anhydrase 4): 88 nM

CCCCCCCCn1c2ccccc2c2cc(/N=C/c3ccc(O)c(O)c3)ccc21
IC50 (Carbonic anhydrase 1 [18]): 32100 nM

Cc1ccnc(NS(=O)(=O)c2ccc(NC(=S)NC(=O)c3ccc(F)cc3)cc2)n1
Ki (Carbonic anhydrase 2 [19]): 8.15 nM

COc1cccc(C(=O)/C=C/c2cn(Cc3cn(-c4ccc(S(N)(=O)=O)cc4)nn3)c3ccccc23)c1
Ki (Carbonic anhydrase 1 [3]): 38.3 nM | Ki (Carbonic anhydrase 2 [4]): 716 nM

Clc1ccccc1-c1nc2cc(-c3ccc4[nH]c(-c5ccccc5Cl)nc4c3)ccc2[nH]1
IC50 (Carbonic anhydrase 9 [20]): 5230 nM

Cc1ccc(NC(=O)SOS(N)(=O)=O)cc1
Ki [12]: 462 nM

COC(=O)[C@H]1O[C@@H](NC(=O)c2ccc(S(N)(=O)=O)cc2)[C@H](O)[C@@H](O)[C@@H]1O
Ratio IC50 (Homo sapiens [16]): 44.4

COc1ccc(-c2cs/c(=N\C(=O)c3c(F)cccc3F)n2C2=C(N)C(=O)c3ccccc3C2=O)cc1
Ki (Carbonic anhydrase 2 [2]): 55.3 nM

NS(=O)(=O)c1ccc(CCNC(=O)c2ccc3c(c2)C(=O)c2ccccc2C3=O)cc1
IC50 (Carbonic anhydrase 2 [21]): 21.2 nM

COc1cccc(NC(=O)Nc2ccc(S(N)(=O)=O)cc2)c1
IC50 (MDA-MB-231 [5]): 6300 nM | IC50 [6]: 19400 nM | Ki (Carbonic anhydrase 12 [22]): 9.1 nM | IC50 (MCF7 [7]): 14400 nM | IC50 (MCF7 [8]): 4600 nM | IC50 (MDA-MB-231 [9]): 12500 nM | Ki (Carbonic anhydrase 9 [13]): 4.1 nM

NS(=O)(=O)c1ccc(NC(=S)NC(=O)c2ccc3c(c2)C(=O)c2ccccc2C3=O)cc1
IC50 (MCF7 [23]): 69400 nM | IC50 (MDA-MB-231 [24]): 46200 nM | IC50 (HepG2 [25]): 28100 nM

CCCCCCCCn1c2ccccc2c2cc(/N=C/c3cccc(O)c3O)ccc21
IC50 (Carbonic anhydrase 2 [21]): 21800 nM

O=C(NC(=S)Nc1ccc(S(=O)(=O)Nc2nccs2)cc1)c1ccc(F)cc1
Ki (Carbonic anhydrase 1 [26]): 14 nM

CCOC(=O)c1sc(NC(=O)c2ccc(S(N)(=O)=O)cc2)nc1C(F)(F)F
Ki (Carbonic anhydrase 1 [1]): 38.5 nM | Ki (Carbonic anhydrase 2 [2]): 7.36 nM

CCOc1ccccc1NC(=O)SOS(N)(=O)=O
Ki [12]: 271 nM

O=C(NC(=S)Nc1ccc(S(=O)(=O)Nc2nccs2)cc1)c1ccccc1
Ki (Carbonic anhydrase 1 [26]): 20.7 nM

Cc1ccc(C(C)C)cc1OCc1cn(CCCCCCOc2ccc3ccc(=O)oc3c2)nn1
IC50 (MCF7 [27]): 2480 nM

CC(=O)C(C)/C(C)=N/NC(=O)C12CC3CC(CC(C3)C1)C2 (stereo unspecified)
IC50 (HepG2 [10]): < 5000 nM | IC50 (MCF7 [11]): < 5000 nM | IC50 (A549): < 5000 nM

COc1ccc(C2C(C#N)=C(N)Oc3c2c(C)nn3-c2ccc(S(N)(=O)=O)cc2)cc1O (stereo unspecified)
IC50 (MCF7 [28]): 1880 nM | IC50 (HCT-116): 4620 nM | Ki (Carbonic anhydrase 9 [13]): 12 nM

Cc1ccc(C)c(NC(=O)SOS(N)(=O)=O)c1
Ki [12]: 516 nM

CCOC(=O)c1sc2ncnc(Nc3ccc(S(N)(=O)=O)cc3)c2c1C
Ki (Carbonic anhydrase 12 [22]): 19 nM | Ki (Carbonic anhydrase 9 [13]): 13.8 nM | Ki (Carbonic anhydrase 2 [2]): 8.6 nM

NC1=C(n2c(-c3ccc(Cl)cc3)cs/c2=N\C(=O)c2c(F)cccc2F)C(=O)c2ccccc2C1=O
Ki (Carbonic anhydrase 1 [1]): 67.9 nM

NS(=O)(=O)c1ccc(C(=O)Nc2nc(C(=O)OCCN3CCOCC3)cs2)cc1
Ki (Carbonic anhydrase 1 [1]): 49.8 nM | Ki (Carbonic anhydrase 2 [2]): 5.97 nM

Cc1nn(-c2ccc(S(N)(=O)=O)cc2)c2c1C(c1ccc(F)cc1F)C(C#N)=C(N)O2 (stereo unspecified)
IC50 (MCF7 [28]): 1690 nM | IC50 (HCT-116): 1300 nM | Ki (Carbonic anhydrase 9 [13]): 19 nM

C/C(=N\Nc1nc(-c2ccc(C)cc2)cs1)c1nnn(-c2ccc(S(N)(=O)=O)cc2)c1C
Ki (Carbonic anhydrase 1 [1]): 40.6 nM

Cn1c(N)c(NCc2ccc(Br)cc2O)c(=O)n(C)c1=O
Ki (Carbonic anhydrase 1 [1]): 36.1 nM

NS(=O)(=O)c1ccc(-c2ccc(-c3cnc(C(=O)N4CCNCC4)o3)s2)cc1
Ki (Carbonic anhydrase 2 [29]): 4 nM
